This series in a line: Human HepG2 cell viability assay in 384 well format. In kind it is toxicity, cell-based. The note with it: HepG2 cells, read-out: Inhibition. The arrangement: dose 125 nL, time 70.5 hour; concentration not given beside the values.

For `CC(=O)NCC(=O)N1Cc2cc(-c3cc[nH]n3)ccc2C1c1cnco1` (stereo not drawn), the cytotoxicity at 70.5 h was -2.28%.

As for `CCN(C)C(=O)c1ccnn1-c1ccc2ccccn12`, the cytotoxicity at 70.5 h turned out to be 1.76%.

For the molecule `O=C(NC1CC1)[C@H]1CC[C@@H]2[C@@H](CCN2Cc2ccsc2)O1`, the cytotoxicity at 70.5 h was -10.2%.

Turning to `O=C(c1ccnnc1)N1CCO[C@H]2[C@@H](OCc3cccnc3)CC[C@@H]21`, the cytotoxicity at 70.5 h was -6.56%.

With `CC(C)CNc1nc2c(cc1C(=O)NCC1CC1)CCNCC2`, the cytotoxicity at 70.5 h was determined as 24.9%.

For `O=C(c1cnccn1)N1CCN2C[C@H](OCC3CC3)C[C@H]2C1`, the cytotoxicity at 70.5 h turned out to be 4.98%.

For the molecule `CCN(C)c1ncnc2c1CCN(C(=O)[C@H]1CCCO1)CC2`, the cytotoxicity at 70.5 h is -9.23%.

Turning to `CN(C)C(=O)N1C[C@@H]2COC[C@]2(c2nnc(C3CC3)o2)C1`, the cytotoxicity at 70.5 h was -10.1%.

With `Cc1ccoc1C(=O)N1CC[C@@H]2O[C@@H](C)C[C@H]2C1`, the cytotoxicity at 70.5 h came out at 0.684%.

As to `Cc1ncoc1C(=O)N1C[C@@H]2COC[C@]2(c2nnc(C3CC3)o2)C1`, the cytotoxicity at 70.5 h was -9.55%.

Take `c1cnc(NCc2noc3c2CN(C2CCOC2)CC3)nc1` (stereo not drawn): the cytotoxicity at 70.5 h is -6.78%.

Turning to `O=C(c1ccoc1)N1CCc2c(COCc3ccncc3)cncc2C1`, the cytotoxicity at 70.5 h stood at 8.95%.

As to `CC(C)(C)C(=O)N1CCC2(CC1)CC(Oc1ccccc1)CO2` (stereo not drawn), the cytotoxicity at 70.5 h is 11.5%.

`Cc1ncnc2c1CCN(C(=O)c1ccsc1)CC2`: the cytotoxicity at 70.5 h amounted to 7.97%.

For `Cc1ccc(C(=O)N2CCc3ncnc(C)c3CC2)o1`, the cytotoxicity at 70.5 h is 9.18%.

Regarding `Cc1ccc(N2CCCc3sc(C(=O)NCc4ccncc4)nc32)nn1`, the cytotoxicity at 70.5 h was -1.89%.

Regarding `CN1CCCc2sc(C(=O)NCc3cccnc3)nc21`, the cytotoxicity at 70.5 h is -10.4%.

As to `O=C(NCc1cccnc1)c1nc2c(s1)CCCN2c1ncccn1`, the cytotoxicity at 70.5 h was determined as 5.15%.

As for `O=C(NCC1CC1)C1=NOC2(CCN(Cc3ccc(Cl)c(F)c3)C2)C1` (stereo not drawn), the cytotoxicity at 70.5 h is -7.64%.

`CCC(=O)N1CCC2(CC1)CC(Oc1ccccc1)CO2` (stereo not drawn): the cytotoxicity at 70.5 h is -4.49%.

Take `Cc1ncnc2c1CCN(C(=O)c1ccoc1)CC2`: the cytotoxicity at 70.5 h was -6.33%.

As to `COCCNC(=O)c1nc2c(s1)CCCN2c1ccc(C)nn1`, the cytotoxicity at 70.5 h was determined as 0.81%.

Consider `O=C(c1cccs1)N1CCC2(CC1)CC(Oc1ccccc1)CO2` (stereo not drawn), for which the cytotoxicity at 70.5 h is -10.8%.

For the molecule `Cc1nnc(N2C[C@H](OCCCn3cccn3)[C@H]3OCCC[C@H]32)s1`, the cytotoxicity at 70.5 h was -2.53%.

Regarding `Cc1ccc(N2CCCc3sc(C(=O)NCCO)nc32)nn1`, the cytotoxicity at 70.5 h is -1.7%.

Turning to `COCC(=O)N1CCC(c2nc3ccc(N4CCOCC4)cn3n2)CC1`, the cytotoxicity at 70.5 h was -2.79%.

Turning to `CC(C)N(C)Cc1n[nH]c2c1CCN(C(=O)c1cc[nH]n1)C2`, the cytotoxicity at 70.5 h was 21.5%.

`CCC(CC)C(=O)NCc1cnn(CC)c1`: the cytotoxicity at 70.5 h is -13.4%.

On to `O=C(c1ccc(F)c(F)c1)N1CCN2CCCC2C1` (stereo not drawn), for which the cytotoxicity at 70.5 h stood at 3.92%.

For the molecule `Cc1cc(C(F)(F)F)nn1CCCNC(=O)C1CCC1`, the cytotoxicity at 70.5 h was -4.63%.

Take `CCCN1CCN(C(=O)Cn2nc(C(F)(F)F)c(Br)c2C2CC2)CC1`: the cytotoxicity at 70.5 h is -6.28%.

Take `CCN1CCN(C(=O)Cn2nc(C(F)(F)F)c(Br)c2C2CC2)CC1`: the cytotoxicity at 70.5 h was -7.97%.

Consider `O=C(CCn1cc(Cl)cn1)Nc1ccc2c(c1)OCCO2`, for which the cytotoxicity at 70.5 h is -8.19%.

As to `Cc1nn(Cc2ccc(C(=O)NC3CCS(=O)(=O)C3)cc2)c(C)c1Br` (stereo not drawn), the cytotoxicity at 70.5 h came out at 3.3%.

As for `CC1CCCN(C(=O)c2ccn(COc3ccccc3)n2)C1` (stereo not drawn), the cytotoxicity at 70.5 h worked out at 12.9%.

`CC1CCN(C(=O)c2ccn(COc3ccccc3)n2)CC1`: the cytotoxicity at 70.5 h was -4.91%.

For the molecule `Cc1ccccc1OCn1ccc(C(=O)NCCN2CCOCC2)n1`, the cytotoxicity at 70.5 h was -12.2%.

`Cn1cnc2c(N3CCOCC3)nc(C3CCNCC3)cc21`: the cytotoxicity at 70.5 h was -1.78%.

On to `CC(C)n1cnc2c(N3CCCC3)nc(C3CCNCC3)cc21`, for which the cytotoxicity at 70.5 h is 5.44%.

With `Cc1ccc2c(n1)N(C)CCN(C(=O)NC(C)C)C2`, the cytotoxicity at 70.5 h is -6.1%.

For the molecule `O=C(N[C@@H]1CN(Cc2cccs2)[C@@H]2CCCO[C@@H]21)c1cscn1`, the cytotoxicity at 70.5 h is -9.16%.

`CS(=O)(=O)N1CC[C@H]2O[C@H](C(=O)NCCc3ccccn3)CC[C@H]21`: the cytotoxicity at 70.5 h was -9.62%.

For `CCN(C)c1ncnc2c1CCN(C(=O)N(C)C)CC2`, the cytotoxicity at 70.5 h amounted to 0.982%.

For the molecule `CN1CCC2(C=C(C(=O)N3CCCC3)c3ccccc32)CC1`, the cytotoxicity at 70.5 h was determined as 1.49%.

For the molecule `O=C(Nc1ccccc1)C1CN(CC2CCOCC2)CC12CCOCC2` (stereo not drawn), the cytotoxicity at 70.5 h turned out to be 9.8%.

With `O=C(NCc1ccco1)[C@@H]1CC[C@@H]2[C@@H](CCN2CC2CC2)O1`, the cytotoxicity at 70.5 h is -6.24%.

Take `O=C(c1cnccn1)N1CCN2C[C@H](OCc3ccccc3)C[C@H]2C1`: the cytotoxicity at 70.5 h was -1.37%.

As for `CN1CCC2(COCc3cnc(-c4ccccc4)nc32)C1` (stereo not drawn), the cytotoxicity at 70.5 h is -6.86%.

With `CCN(C)c1ncnc2c1CCN(C(=O)COC)CC2`, the cytotoxicity at 70.5 h was -10.8%.

As for `O=C(NCc1cccs1)c1nc2c(o1)CN(CC1CC1)C2`, the cytotoxicity at 70.5 h is -9.19%.

For the molecule `CN(C)C(=O)NC[C@@H]1OC[C@H]2CN(Cc3cccc(F)c3)CC[C@H]21`, the cytotoxicity at 70.5 h was -6.1%.

On to `CCOCC1CN(S(=O)(=O)N(C)C)Cc2cnn(CC)c21` (stereo not drawn), for which the cytotoxicity at 70.5 h was -8.84%.

On to `Cc1nc(CN2Cc3nccn3CC(COCC3CC3)C2)cs1` (stereo not drawn), for which the cytotoxicity at 70.5 h was -0.0625%.

Consider `CS(=O)(=O)N1Cc2cnn(CC3CC3)c2C(COCC2CC2)C1` (stereo not drawn), for which the cytotoxicity at 70.5 h was -6.21%.

For the molecule `COCCN1CCC2(COCc3cnc(N(C)C)nc32)C1` (stereo not drawn), the cytotoxicity at 70.5 h was -2.9%.

For the molecule `Cc1ccc(CN2CCOC3(COCCN(S(C)(=O)=O)C3)C2)o1` (stereo not drawn), the cytotoxicity at 70.5 h is -5.62%.

On to `CCOCCCNC(=O)c1nc2c(s1)CCCN2c1ccc(C)nn1`, for which the cytotoxicity at 70.5 h is -7.8%.

Take `CN(C)C(=O)N1Cc2nnn(C)c2C(COCc2cccnc2)C1` (stereo not drawn): the cytotoxicity at 70.5 h was -2.6%.

`O=C(N[C@H]1CN(Cc2cccs2)[C@@H]2CCCO[C@H]12)c1cccnc1`: the cytotoxicity at 70.5 h is -18.4%.

`CCc1cnc(N2CC[C@H]3[C@H]2CC(=O)N3c2cccnc2)nc1`: the cytotoxicity at 70.5 h is -10%.

For the molecule `O=C(NCCc1ccncc1)[C@H]1CC[C@@H]2[C@@H](CCN2CC2CC2)O1`, the cytotoxicity at 70.5 h is -10.8%.

On to `O=C(NCCc1ccncc1)[C@@H]1CC[C@@H]2[C@@H](CCN2Cc2ccco2)O1`, for which the cytotoxicity at 70.5 h is -9.71%.

Consider `Cc1nnc(N2C[C@@H](Oc3ccccn3)[C@H]3OCCC[C@H]32)s1`, for which the cytotoxicity at 70.5 h is -4.15%.

With `O=C(c1ccc[nH]1)N1CCc2c(COCc3ccncc3)cncc2C1`, the cytotoxicity at 70.5 h is -3.15%.

On to `CCN(CC)CC1CN(Cc2nccs2)Cc2nccn2C1` (stereo not drawn), for which the cytotoxicity at 70.5 h is -9.42%.

In the case of `Cc1nnc(N2C[C@H](OCc3cccnc3)[C@H]3OCCC[C@H]32)s1`, the cytotoxicity at 70.5 h came out at 10%.

As to `Cc1nnc(N2C[C@H](OCc3ccncc3)[C@H]3OCCC[C@H]32)s1`, the cytotoxicity at 70.5 h was -4.47%.

Consider `c1coc(CN2CCOC3(COCCN(Cc4ccncc4)C3)C2)c1` (stereo not drawn), for which the cytotoxicity at 70.5 h was -3.4%.

(Values after ChEMBL document CHEMBL3507680, “University of Dundee, Gates Library screen for HepG2 cell viability”.)
